From patent US7723289B2, “PIF tetrapeptides” (BioIncept, LLC, priority 2003, dated 2010)

Columns and labels:
[1] = system: PBMC; experiment: Time-dependent cytokine secretion by PBMC (Table 3); format: cell-based, human
Experimental: Detailed time dependent and multiple controls were used the secretion of several cytokines by PBMC (IL-2, IL-5, IL-8, GM-CSF, IL-4, IL-10, TNF-α, IFN-γβ, IL-1 and IL-6) were measured. […] By 4 hours, sPIF-1 blocked TNF alpha with recovery by 24 hours. Also INFgamma secretion initiated only after 48 hours. […] Effects on cytokines was already noted at 0.7 nM. Similar effects were found also with other mitogens LPS and PHA when PIF-1 was tested.

[2] = system: PBMC; experiment: PIF and analogues on release of cytokines +/- platebound mAbCD3 (Table 4); format: cell-based; parameters: IL-1β / TNFa / IL-4 / IL-5 / IL-6 / IL-10 / GM-CSM / IFN-g: unit not given here
[3] = system: THP1 a monocyte cell line; details: 1-100 nM, no mitogen
Description: The effect of PIF-1 was examined on THP1 a monocyte cell line (Dr Sharma Brown Univ).

[4] = system: PBMC; experiment: PIF-1 effects on cytokine expression in patient and control PBMC (Table 7); format: cell-based, human; details: for TH1/TH2 change in parentheses: PHA + PIF-115 + vs PHA + alone; for IL-10 / TH1/TH2 / TNFα: PHA +, PIF-115 +
[5] = system: PIF-1 polyclonal antibody; experiment: PIF-1 competitive ELISA, biotin labeled versus unlabeled peptide; format: binding, rabbits; details: 4.5 ug/ml pAb coating concentration; read-out: IC50 of dose response curve
[6] = system: T cells
Experimental: We have examined using calcium mobilization in T cells which is central to T-Cell activation initiated by antigen presentation to the T-Cell Receptor (TCR) antigen whether PIF-1 acts through mobilization of Ca++flux. Activation of T-cells was carried out by using phorbal ester (PMA) and Ca2+ ionomycin both of which synergize through two different signaling pathways the former through Protein Kinase C, while the later through Tyrosine Kinases. […] We have also looked at Tcell activation using PHA.
Calcium channel analysis method: 2E6 freshly isolated PBMC in RPMI1640+10% FBS (HI) and equilibrated for 24 hours. Cells are loaded with a proprietary dye that fluorescence when bound with Ca++. PIF-11 or 50 nM as well as 1-50 nM scrPIF-1 were added prior to inducing the cells with PMA/ionomycin or PHA20 ug/ml or vehicle 0.005% DMSO. PIF-1 treated cells are loaded into the Flexstation and the inducer is added robotically with a liquid handler. At a precise time fluorescence monitoring commences. CA++ mobilization involves initially at least sequestered within organelles to the cytoplasm where it binds with the dye and produces a fluorescent signal.

[7] = 96 h post induction, substance alone
[8] = 96 h post induction, with MabCD3 coated wells

MVRIKPGSANKPSDD [sPIF-1(15)]
IL-6 [1, 7]: 0 pg/mL | IL-8 [1, 7]: 6679.0 pg/mL | IL-10 [1, 7]: 0 pg/mL | TNF-α [1, 7]: 0 pg/mL | GM-CSF [1, 8]: 0 pg/mL | IFN-y [1, 8]: 0 pg/mL | IL-1β [1, 8]: 0 pg/mL | IL-2 [1, 8]: 0 pg/mL | IL-4 [1, 8]: 0 pg/mL | IL-5 [1, 8]: 0 pg/mL | IL-6 [1, 8]: 0 pg/mL | IL-8 [1, 8]: 0 pg/mL | IL-10 [1, 8]: 0 pg/mL | TNF-α [1, 8]: 0 pg/mL | Th2 cytokine (IL10) secretion ([1]; CD3MAb as mitogen, after 24 hours): Major increase | TNF alpha secretion ([1]; CD3MAb as mitogen, by 4 hours, recovery by 24 hours): blocked | GM-CSM ([2]; C- (platebound mAbCD3), /1): 20.7 | IFN-g ([2]; C- (platebound mAbCD3), /1): 122.6 | IL-1β ([2]; C- (platebound mAbCD3), /1): 3.4 | IL-2 ([2]; C- (platebound mAbCD3), /1): 21.4 | IL-4 ([2]; C- (platebound mAbCD3), /1): 17.2 | IL-5 ([2]; C- (platebound mAbCD3), /1): 0 | IL-6 ([2]; C- (platebound mAbCD3), /1): 204.2 | IL-8 ([2]; C- (platebound mAbCD3), /1): >5000 | IL-10 ([2]; C- (platebound mAbCD3), /1): 72.9 | TNFa ([2]; C- (platebound mAbCD3), /1): 135.7 | GM-CSM ([2]; C- (platebound mAbCD3), /50): 29.1 | IFN-g ([2]; C- (platebound mAbCD3), /50): 130.3 | IL-1β ([2]; C- (platebound mAbCD3), /50): 4.4 | IL-2 ([2]; C- (platebound mAbCD3), /50): 31.0 | IL-4 ([2]; C- (platebound mAbCD3), /50): 17.9 | IL-5 ([2]; C- (platebound mAbCD3), /50): 0 | IL-6 ([2]; C- (platebound mAbCD3), /50): 287.7 | IL-8 ([2]; C- (platebound mAbCD3), /50): >5000 | IL-10 ([2]; C- (platebound mAbCD3), /50): 77.0 | TNFa ([2]; C- (platebound mAbCD3), /50): 223.5 | GM-CSM ([2]; U- (no mAbCD3), /1): 12.5 | IFN-g ([2]; U- (no mAbCD3), /1): 0 | IL-1β ([2]; U- (no mAbCD3), /1): 0 | IL-2 ([2]; U- (no mAbCD3), /1): 19.9 | IL-4 ([2]; U- (no mAbCD3), /1): 0 | IL-5 ([2]; U- (no mAbCD3), /1): 0 | IL-6 ([2]; U- (no mAbCD3), /1): 32.2 | IL-8 ([2]; U- (no mAbCD3), /1): 963.0 | IL-10 ([2]; U- (no mAbCD3), /1): 0 | TNFa ([2]; U- (no mAbCD3), /1): 0 | GM-CSM ([2]; U- (no mAbCD3), /50): 0 | IFN-g ([2]; U- (no mAbCD3), /50): 0 | IL-1β ([2]; U- (no mAbCD3), /50): 0 | IL-2 ([2]; U- (no mAbCD3), /50): 0 | IL-4 ([2]; U- (no mAbCD3), /50): 0 | IL-5 ([2]; U- (no mAbCD3), /50): 0 | IL-6 ([2]; U- (no mAbCD3), /50): 37.8 | IL-8 ([2]; U- (no mAbCD3), /50): 1426.7 | IL-10 ([2]; U- (no mAbCD3), /50): 0 | TNFa ([2]; U- (no mAbCD3), /50): 0 | IL10 secretion [3]: dose dependent increase | TH1/TH2 change in parentheses ([4]; control): −19% | IL-10 ([4]; control): 28.18 % of total PBMC in scatter gate | TH1/TH2 ([4]; control): 0.55 | TNFα ([4]; control): 15.46 % of total PBMC in scatter gate | TH1/TH2 change in parentheses ([4]; patient): +32% | IL-10 ([4]; patient): 24.32 % of total PBMC in scatter gate | TH1/TH2 ([4]; patient): 0.75 | TNFα ([4]; patient): 18.32 % of total PBMC in scatter gate | IC50 [5]: 0.5 to 0.7 nM | PHA stimulation of Ca2+ influx ([6]; PHA activated T cells): does not show any inhibition | Ca++ mobilization ([6]; PMA and ionomycin activated T-cells, 1 nM-50 uM): did not affect
